Results taken from ChEMBL document CHEMBL4190352, “Continued SAR exploration of 1,2,4-thiadiazole-containing scaffolds in the design of free fatty acid receptor 1 (GPR40) agonists” (Eur J Med Chem, 2017).
The source made the active and inactive calls. The rule behind the calls is not given here.

Experiments:
Type in all cases: functional, cell-based
[1] = molecular target: T1, Free fatty acid receptor 1 (Homo sapiens, UniProt O14842); assay: Agonist activity at human GPR40/FFA1 expressed in CHO cells assessed as increase in calcium flux at 1 uM by Fluo-8 AM dye based FLIPR method relative to 10 uM GW9508
T1 sequence (O14842 whole entry): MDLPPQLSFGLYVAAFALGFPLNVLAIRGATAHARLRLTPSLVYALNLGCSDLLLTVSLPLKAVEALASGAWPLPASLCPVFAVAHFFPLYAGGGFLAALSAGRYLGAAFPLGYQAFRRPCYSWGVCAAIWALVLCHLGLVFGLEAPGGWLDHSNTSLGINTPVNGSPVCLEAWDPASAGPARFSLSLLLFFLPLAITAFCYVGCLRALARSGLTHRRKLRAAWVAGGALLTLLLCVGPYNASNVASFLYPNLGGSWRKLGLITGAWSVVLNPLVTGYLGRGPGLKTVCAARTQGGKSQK

[2] = molecular target: T1, Free fatty acid receptor 1; assay: Agonist activity at human GPR40/FFA1 expressed in CHO cells assessed as increase in calcium flux at 1 uM by Fluo-8 AM dye based FLIPR method
[3] = molecular target: T2, Free fatty acid receptor 3 (Homo sapiens) (UniProt O14843); assay: Agonist activity at GPR41/FFA3 (unknown origin) expressed in CHO cells assessed as increase in calcium flux at 10 uM by Fluo-8 AM dye based FLIPR method
T2 sequence (whole entry): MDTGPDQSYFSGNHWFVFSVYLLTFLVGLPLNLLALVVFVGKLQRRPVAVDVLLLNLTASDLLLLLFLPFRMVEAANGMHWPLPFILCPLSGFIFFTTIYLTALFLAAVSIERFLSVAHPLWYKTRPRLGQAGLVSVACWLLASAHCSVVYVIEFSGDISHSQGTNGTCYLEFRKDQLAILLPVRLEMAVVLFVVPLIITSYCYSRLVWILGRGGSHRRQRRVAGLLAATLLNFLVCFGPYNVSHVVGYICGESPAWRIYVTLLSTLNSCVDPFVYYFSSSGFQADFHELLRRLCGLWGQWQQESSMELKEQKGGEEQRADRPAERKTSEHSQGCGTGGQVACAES

[4] = molecular target: T3, Free fatty acid receptor 2 (Homo sapiens) (UniProt O15552); assay: Agonist activity at GPR43/FFA2 (unknown origin) expressed in CHO cells assessed as increase in calcium flux at 10 uM by Fluo-8 AM dye based FLIPR method
T3 sequence (whole entry): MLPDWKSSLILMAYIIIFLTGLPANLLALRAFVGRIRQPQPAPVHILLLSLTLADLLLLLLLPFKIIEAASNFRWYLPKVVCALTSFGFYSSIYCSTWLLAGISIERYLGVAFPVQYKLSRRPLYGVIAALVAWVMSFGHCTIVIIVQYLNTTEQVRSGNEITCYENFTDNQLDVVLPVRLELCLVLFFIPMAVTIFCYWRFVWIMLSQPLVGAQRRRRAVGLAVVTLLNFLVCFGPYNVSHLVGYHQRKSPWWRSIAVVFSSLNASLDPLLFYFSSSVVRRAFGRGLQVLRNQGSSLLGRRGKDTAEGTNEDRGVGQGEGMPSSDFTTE

[5] = molecular target: T4, Free fatty acid receptor 4 (Homo sapiens) (UniProt Q5NUL3); assay: Agonist activity at GPR120/FFA4 (unknown origin) expressed in CHO cells assessed as increase in calcium flux at 10 uM by Fluo-8 AM dye based FLIPR method
T4 sequence (whole entry): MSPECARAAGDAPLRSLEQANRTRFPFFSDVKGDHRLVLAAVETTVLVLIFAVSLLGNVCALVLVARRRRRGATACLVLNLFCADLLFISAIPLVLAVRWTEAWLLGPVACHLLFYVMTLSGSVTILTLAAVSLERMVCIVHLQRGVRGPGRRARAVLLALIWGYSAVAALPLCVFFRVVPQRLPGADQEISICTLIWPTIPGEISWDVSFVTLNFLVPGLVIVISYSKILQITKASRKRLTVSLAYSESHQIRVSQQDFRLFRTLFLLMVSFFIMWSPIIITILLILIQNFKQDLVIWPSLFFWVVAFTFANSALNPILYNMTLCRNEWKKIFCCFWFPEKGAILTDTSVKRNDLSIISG

For O=C(O)CCc1ccc(NC(=O)c2nnc(CC(c3ccccc3)c3ccc4c(c3)OCO4)s2)cc1 (centres undefined), the Activity [1] was 60.3%, the EC50 [2] was 4.12 µM and the Activity [3] was “inactive”. For the same molecule, the Activity [4] was “inactive” and the Activity [5] was “inactive”.

With Cc1ccc(NC(=O)c2nnc(C(=O)Nc3ccc(OCC(=O)O)cc3)s2)cc1 the Activity [1] was 7% and the EC50 [2] was > 10 µM.

In the case of O=C(O)COc1ccc(NC(=O)c2nnc(C(=O)Nc3ccc(Cl)cc3)s2)cc1, the Activity [1] is reported as 4.2% and the EC50 [2] is reported as > 10 µM.

O=C(O)CCc1ccc(NC(=O)c2nnc(COc3cccc(C(F)(F)F)c3)s2)cc1 was tested, and the Activity [1] was 70.1%, the EC50 [2] was 3.09 µM and the Activity [3] was “inactive”. For the same molecule, the Activity [4] was “inactive” and the Activity [5] was “inactive”.

In the case of O=C(O)CCc1ccc(NC(=O)c2nnc(Cc3ccc(Cl)cc3)s2)cc1, the Activity [1] is reported as 72.3%, the EC50 [2] is reported as 2.39 µM and the Activity [3] is reported as “inactive”. The Activity [4] was “inactive” and the Activity [5] was “inactive”.

For CCOC(=O)c1ccc(NC(=O)c2nnc(C(=O)Nc3ccc(OCC(=O)O)cc3)s2)cc1, the Activity [1] was 9.4% and the EC50 [2] was > 10 µM.

Cc1cccc(NC(=O)c2nnc(C(=O)Nc3ccc(OCC(=O)O)cc3)s2)c1C was tested, and the Activity [1] was 6.6% and the EC50 [2] was > 10 µM.

O=C(O)COc1ccc(NC(=O)c2nnc(C(=O)Nc3ccc(F)c(F)c3)s2)cc1 was tested, and the Activity [1] was 6.6% and the EC50 [2] was > 10 µM.

O=C(O)COc1ccc(NC(=O)c2nnc(C(=O)Nc3ccccc3)s2)cc1 was tested, and the Activity [1] was 7.8% and the EC50 [2] was > 10 µM.

With Cc1ccccc1OCc1nnc(C(=O)Nc2ccc(CCC(=O)O)cc2)s1 the Activity [1] was 89.9%, the EC50 [2] was 1.52 µM and the Activity [3] was “inactive”. For the same molecule, the Activity [4] was “inactive” and the Activity [5] was “inactive”.

In the case of Cc1ccc(OCc2nnc(C(=O)Nc3ccc(CCC(=O)O)cc3)s2)cc1C, the Activity [1] is reported as 64.9%, the EC50 [2] is reported as 1.13 µM and the Activity [3] is reported as “inactive”. The Activity [4] was “inactive” and the Activity [5] was “inactive”.

With O=C(O)COc1ccc(NC(=O)c2nnc(C(=O)Nc3ccc(F)cc3)s2)cc1 the Activity [1] was 6% and the EC50 [2] was > 10 µM.

In the case of Cc1ccc(NC(=O)c2nnc(C(=O)Nc3ccc(OCC(=O)O)cc3)s2)cc1C, the Activity [1] is reported as 2.8% and the EC50 [2] is reported as > 10 µM.

O=C(O)CCc1ccc(NC(=O)c2nnc(CC(c3ccccc3)c3ccc(Cl)cc3)s2)cc1 (centres undefined) was tested, and the Activity [1] was 84.9%, the EC50 [2] was 2.71 µM and the Activity [3] was “inactive”. The Activity [4] was “inactive” and the Activity [5] was “inactive”.

With CCOC(=O)c1cccc(NC(=O)c2nnc(C(=O)Nc3ccc(OCC(=O)O)cc3)s2)c1 the Activity [1] was 6.4% and the EC50 [2] was > 10 µM.

Cc1ccc(OCc2nnc(C(=O)Nc3ccc(CCC(=O)O)cc3)s2)cc1 was tested, and the Activity [1] was 76.9%, the EC50 [2] was 2.17 µM and the Activity [3] was “inactive”. For the same molecule, the Activity [4] was “inactive” and the Activity [5] was “inactive”.

In the case of CCc1ccc(OCc2nnc(C(=O)Nc3ccc(CCC(=O)O)cc3)s2)cc1, the Activity [1] is reported as 74.4%, the EC50 [2] is reported as 1.17 µM and the Activity [3] is reported as “inactive”. For the same molecule, the Activity [4] was “inactive” and the Activity [5] was “inactive”.

With O=C(O)CCc1ccc(NC(=O)c2nnc(COc3cccc(Cl)c3)s2)cc1 the Activity [1] was 82.9%, the EC50 [2] was 1.57 µM and the Activity [3] was “inactive”. The Activity [4] was “inactive” and the Activity [5] was “inactive”.

For O=C(O)CCc1ccc(NC(=O)c2nnc(COc3ccc4c(c3)CCC4)s2)cc1, the Activity [1] was 91.2%, the EC50 [2] was 1.38 µM and the Activity [3] was “inactive”. The Activity [4] was “inactive” and the Activity [5] was “inactive”.

For COc1ccc(C(Cc2nnc(C(=O)Nc3ccc(CCC(=O)O)cc3)s2)c2ccccc2)cc1 (centres undefined), the Activity [1] was 78.9%, the EC50 [2] was 1.35 µM and the Activity [3] was “inactive”. The Activity [4] was “inactive” and the Activity [5] was “inactive”.

For Cc1ccccc1NC(=O)c1nnc(C(=O)Nc2ccc(OCC(=O)O)cc2)s1, the Activity [1] was 6.6% and the EC50 [2] was > 10 µM.

In the case of O=C(O)CCc1ccc(NC(=O)c2nnc(Cc3cccc(F)c3)s2)cc1, the Activity [1] is reported as 60.3%, the EC50 [2] is reported as 5.02 µM and the Activity [3] is reported as “inactive”. The Activity [4] was “inactive” and the Activity [5] was “inactive”.

COc1ccc(OCc2nnc(C(=O)Nc3ccc(CCC(=O)O)cc3)s2)cc1 was tested, and the Activity [1] was 72.5%, the EC50 [2] was 2.43 µM and the Activity [3] was “inactive”. For the same molecule, the Activity [4] was “inactive” and the Activity [5] was “inactive”.

In the case of O=C(O)CCc1ccc(NC(=O)c2nnc(Cc3ccccc3)s2)cc1, the Activity [1] is reported as 70.1%, the EC50 [2] is reported as 3.67 µM and the Activity [3] is reported as “inactive”. The Activity [4] was “inactive” and the Activity [5] was “inactive”.

With O=C(O)CCc1ccc(NC(=O)c2nnc(COc3ccc(F)cc3)s2)cc1 the Activity [1] was 48.5%, the EC50 [2] was 5.39 µM and the Activity [3] was “inactive”. For the same molecule, the Activity [4] was “inactive” and the Activity [5] was “inactive”.

Cc1cccc(NC(=O)c2nnc(C(=O)Nc3ccc(OCC(=O)O)cc3)s2)c1 was tested, and the Activity [1] was 6% and the EC50 [2] was > 10 µM.

In the case of COc1cccc(NC(=O)c2nnc(C(=O)Nc3ccc(OCC(=O)O)cc3)s2)c1, the Activity [1] is reported as 9.2% and the EC50 [2] is reported as > 10 µM.

Cc1nnc(NC(=O)c2nnc(C(=O)Nc3ccc(OCC(=O)O)cc3)s2)s1 was tested, and the Activity [1] was 9.8% and the EC50 [2] was > 10 µM.

O=C(O)COc1ccc(NC(=O)c2nnc(C(=O)Nc3ccc(F)cc3F)s2)cc1 was tested, and the Activity [1] was 6.6% and the EC50 [2] was > 10 µM.

With Cc1cccc(OCc2nnc(C(=O)Nc3ccc(CCC(=O)O)cc3)s2)c1 the Activity [1] was 82.4%, the EC50 [2] was 3.26 µM and the Activity [3] was “inactive”. The Activity [4] was “inactive” and the Activity [5] was “inactive”.

For O=C(O)COc1ccc(NC(=O)c2nnc(C(=O)Nc3ccc(Br)cc3)s2)cc1, the Activity [1] was 5.9% and the EC50 [2] was > 10 µM.

O=C(O)CCc1ccc(NC(=O)c2nnc(Cc3cccc(Cl)c3)s2)cc1 was tested, and the Activity [1] was 79.4%, the EC50 [2] was 2.39 µM and the Activity [3] was “inactive”. The Activity [4] was “inactive” and the Activity [5] was “inactive”.

In the case of O=C(O)COc1ccc(NC(=O)c2nnc(C(=O)Nc3ccccc3F)s2)cc1, the Activity [1] is reported as 6% and the EC50 [2] is reported as > 10 µM.

In the case of Cc1ccc(C)c(OCc2nnc(C(=O)Nc3ccc(CCC(=O)O)cc3)s2)c1, the Activity [1] is reported as 88.2%, the EC50 [2] is reported as 1.53 µM and the Activity [3] is reported as “inactive”. The Activity [4] was “inactive” and the Activity [5] was “inactive”.

With O=C(O)CCc1ccc(NC(=O)c2nnc(CC(c3ccccc3)c3ccccc3F)s2)cc1 (centres undefined) the Activity [1] was 68.6%, the EC50 [2] was 1.02 µM and the Activity [3] was “inactive”. For the same molecule, the Activity [4] was “inactive” and the Activity [5] was “inactive”.

With Cc1ccc(OCc2nnc(C(=O)Nc3ccc(CCC(=O)O)cc3)s2)c(C)c1 the Activity [1] was 74.7%, the EC50 [2] was 2.54 µM and the Activity [3] was “inactive”. The Activity [4] was “inactive” and the Activity [5] was “inactive”.

For COc1ccc(C)cc1NC(=O)c1nnc(C(=O)Nc2ccc(OCC(=O)O)cc2)s1, the Activity [1] was 6.6% and the EC50 [2] was > 10 µM.
